# Entries after “also recorded” stand apart in the source; their conditions may differ. No end group written: not given here.
# Key:
# C57BL/6 mice = test: Bilateral ACL-injury mouse model: knee histology, OARSI score; format: in vivo
# Description: Some of the studies reported below involved a murine model of animals which were subjected to trauma by injuring an ACL (as an exemplar of injury to any of the four knee ligaments). Without wishing to be bound by theory, it is believed that injury to the ACL changes the mechanical loading on the joint, promoting imbalanced metabolism in articular cartilage, and promoting the development of post-traumatic OA, or “PTOA.” Animals were divided into four cohorts: the first group, the controls, were not subjected to trauma, the second group underwent bilateral ACL injury, but no further treatment, the third group underwent bilateral ACL injury, and was then administered saline solution at days 3, 10 and 17 post-injury, and the fourth group underwent bilateral ACL injury, and was then administered GsMTx4 peptide at days 3, 10 and 17 post-injury. The animals were evaluated by gait analysis, a cell vulnerability assay, and a histological evaluation/immunofluorescence assay. In one aspect, the assays compared the expression of Piezo1 and Piezo2 in chondrocytes from injured joints, from uninjured controls, and from injured joints injured and then treated with GsMTx4 and from joints that were injured and then treated only with saline solution. The study also looked at calcitonin gene-related peptide (“CGRP”)-containing (“CGRP^+”) nerve endings. CGRP^+ nerves have been identified as principal coordinators of thermal and mechanical sensitivity in various pain models. See, e.g., Powell, et al., Nat Commun 12, 5812 (2021); doi.org/10.1038/s41467-021-26100-6.
# Experiments were performed in a non-invasive ACL-injury mouse model. […] Both male and female mice were used in the four groups and results were tracked by gender as well as by group.
# Animals in the ACL-injury groups were provided with buprenorphine as an analgesic, placed under anesthesia by isoflurane inhalation, and had the injuries induced with a custom-built strain gauge-instrumented device by applying axial force along the femoral shaft until a force drop was felt and a distinct “pop” sound was heard. […]
# Piezo2 = test: Bilateral ACL-injury mouse model: Piezo2 expression in CGRP+ pain nerves; format: in vivo; settings: ACL-I mice, GsMTx4 post-injury, versus saline-treated ACL-I mice
# Description: Some of the studies reported below involved a murine model of animals which were subjected to trauma by injuring an ACL (as an exemplar of injury to any of the four knee ligaments). Without wishing to be bound by theory, it is believed that injury to the ACL changes the mechanical loading on the joint, promoting imbalanced metabolism in articular cartilage, and promoting the development of post-traumatic OA, or “PTOA.” Animals were divided into four cohorts: the first group, the controls, were not subjected to trauma, the second group underwent bilateral ACL injury, but no further treatment, the third group underwent bilateral ACL injury, and was then administered saline solution at days 3, 10 and 17 post-injury, and the fourth group underwent bilateral ACL injury, and was then administered GsMTx4 peptide at days 3, 10 and 17 post-injury. The animals were evaluated by gait analysis, a cell vulnerability assay, and a histological evaluation/immunofluorescence assay. In one aspect, the assays compared the expression of Piezo1 and Piezo2 in chondrocytes from injured joints, from uninjured controls, and from injured joints injured and then treated with GsMTx4 and from joints that were injured and then treated only with saline solution. The study also looked at calcitonin gene-related peptide (“CGRP”)-containing (“CGRP^+”) nerve endings. […]
substance,measurement,setting,value
GsMTx4 (GCLEFWWKCNPNDDKCCRPKLKCSKLFKLCNFSF-NH2; ends and bridges not checked; listed as Grammostola spatulata),OA severity (OARSI score),"C57BL/6 mice; ACL-I mice, GsMTx4 at days 3, 10, 17 post-injury, 3 weeks post-ACL-I, versus saline-treated ACL-I mice",reduced OARSI score; also recorded: decreased OA degrees significantly
same,combined OARSI score for the femur and the tibia (FIG. 2B),"C57BL/6 mice; bilateral ACL injury, subcutaneous injection, versus not treated or saline-treated animals",much lower OARSI score
same,"cartilage on femur and tibia (histology, FIG. 2A)","C57BL/6 mice; bilateral ACL injury, versus saline-injected mouse (cartilage severely eroded and disrupted)",still a layer of cartilage almost all of the femur and tibial surface
same,Piezo2 expression in CGRP^+ pain nerves,Piezo2,decreased Piezo2 expression in CGRP^+ pain nerves

# — US20250288645A1, “USE OF GsMTx4 AND GsMTx4 CONJUGATES TO IMPROVE RECOVERY FROM JOINT INJURY” (priority 2023, published 2025)
